From patent publication US12454529B2, “Piperazine cyclic ureas” (SIRONAX LTD., priority 2020, dated 2025)
Where two headings read alike, the source gives them in different places.

Test system: HT-29 cells
Test: HT-29 cell necrosis/necroptosis inhibition (TNF-α + SMAC mimetic + zVAD-FMK; CellTiter-Glo cell viability)
Type: cell-based
Details: HT-29 cells, TNF-α 10 ng/ml + SMAC mimetic 6 μM + zVAD-FMK 10 μM, 20 hours, geometric mean, 10 points in duplicate, read-out: EC50 (Cell activity; Necrosis/Necroptosis Inhibitory Activity, Compounds 143-323)
Summary of the method: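 HT-29 cells (~5,000/well) were switched to FBS-free McCOY's 5A holding TNF-α (10 ng/ml), SMAC mimetic (6 μM) and zVAD-FMK (10 μM), then dosed with a 10-point 1:3 series for 20 h at 37 °C. CellTiter-Glo luminescence gave viability; geometric mean EC50 from duplicates.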

| Structure (SMILES) | EC50 (Homo sapiens) [nM] | EC50 [nM] |
| --- | --- | --- |
| N#Cc1cnn(-c2ncc(F)c(N3CCN(C(=O)N4N=CC[C@H]4c4cc(F)cc(F)c4)CC3)n2)c1 [Compound 218, (S)-1-(4-(4-(5-(3,5-difluorophenyl)-4,5-dihydro-1H-pyrazole-1-carbonyl)piperazin-1-yl)-5-fluoropyrimidin-2-yl)-1H-pyrazole-4-carbonitrile] | 0.1 to 100 |  |
| N#Cc1cc(F)cc([C@@H]2CC=NN2C(=O)N2CCN(c3nc(-n4cc(C#N)cn4)ncc3F)CC2)c1 [Compound 219, (S)-1-(4-(4-(5-(3-cyano-5-fluorophenyl)-4,5-dihydro-1H-pyrazole-1-carbonyl)piperazin-1-yl)-5-fluoropyrimidin-2-yl)-1H-pyrazole-4-carbonitrile] | 0.1 to 100 |  |
| Cc1nc(C)n(-c2nc(N3CCN(C(=O)N4N=CCC4c4ncccc4Cl)CC3)ncc2Cl)n1 (stereo not drawn) [Compound 220, (4-(5-chloro-4-(3,5-dimethyl-1H-1,2,4-triazol-1-yl)pyrimidin-2-yl)piperazin-1-yl)(5-(3-chloropyridin-2-yl)-4,5-dihydro-1H-pyrazol-1-yl)methanone] | 0.1 to 100 |  |
| Cn1ncnc1-c1nc(N2CCN(C(=O)N3N=CCC3c3ncccc3Cl)CC2)ncc1F (stereo not drawn) [Compound 221] | 0.1 to 100 |  |
| Cn1ncnc1-c1ccc(F)c(N2CCN(C(=O)N3N=CCC3c3ncccc3Cl)CC2)n1 (stereo not drawn) [Compound 222, (5-(3-chloropyridin-2-yl)-4,5-dihydro-1H-pyrazol-1-yl)(4-(3-fluoro-6-(1-methyl-1H-1,2,4-triazol-5-yl)pyridin-2-yl)piperazin-1-yl)methanone] | 0.1 to 100 |  |
| Cc1nc(C)n(-c2nc(N3CCN(C(=O)N4N=CCC4c4cnc(C)s4)CC3)ncc2Cl)n1 (stereo not drawn) [Compound 223, (4-(5-chloro-4-(3,5-dimethyl-1H-1,2,4-triazol-1-yl)pyrimidin-2-yl)piperazin-1-yl)(5-(2-methylthiazol-5-yl)-4,5-dihydro-1H-pyrazol-1-yl)methanone] | 0.1 to 100 |  |
| Cc1nc(C)n(-c2nc(N3CCN(C(=O)N4N=CCC4c4csc(C)n4)CC3)ncc2Cl)n1 (stereo not drawn) [Compound 224, (4-(5-chloro-4-(3,5-dimethyl-1H-1,2,4-triazol-1-yl)pyrimidin-2-yl)piperazin-1-yl)(5-(2-methylthiazol-4-yl)-4,5-dihydro-1H-pyrazol-1-yl)methanone] | 100 to 1000 |  |
| Cn1nc(C(N)=O)nc1-c1nc(N2CCN(C(=O)N3N=CCC3c3cc(F)cc(F)c3)CC2)ncc1F (stereo not drawn) [Compound 225, 5-(2-(4-(5-(3,5-difluorophenyl)-4,5-dihydro-1H-pyrazole-1-carbonyl)piperazin-1-yl)-5-fluoropyrimidin-4-yl)-1-methyl-1H-1,2,4-triazole-3-carboxamide] | 0.1 to 100 |  |
| Cn1nc(C(N)=O)nc1-c1nc(N2CCN(C(=O)N3N=CCC3c3cncc(F)c3)CC2)ncc1F (stereo not drawn) [Compound 226, 5-(5-fluoro-2-(4-(5-(5-fluoropyridin-3-yl)-4,5-dihydro-1H-pyrazole-1-carbonyl)piperazin-1-yl)pyrimidin-4-yl)-1-methyl-1H-1,2,4-triazole-3-carboxamide] | 0.1 to 100 |  |
| Cn1nc(CO)nc1-c1nc(N2CCN(C(=O)N3N=CCC3c3cc(F)cc(F)c3)CC2)ncc1F (stereo not drawn) [Compound 227, (5-(3,5-difluorophenyl)-4,5-dihydro-1H-pyrazol-1-yl)(4-(5-fluoro-4-(3-(hydroxymethyl)-1-methyl-1H-1,2,4-triazol-5-yl)pyrimidin-2-yl)piperazin-1-yl)methanone] | 0.1 to 100 |  |
| Cn1nc(C#N)nc1-c1nc(N2CCN(C(=O)N3N=CCC3c3cc(F)cc(F)c3)CC2)ncc1F (stereo not drawn) [Compound 228, 5-(2-(4-(5-(3,5-difluorophenyl)-4,5-dihydro-1H-pyrazole-1-carbonyl)piperazin-1-yl)-5-fluoropyrimidin-4-yl)-1-methyl-1H-1,2,4-triazole-3-carbonitrile] | 0.1 to 100 |  |
| Cn1nc(C#N)nc1-c1nc(N2CCN(C(=O)N3N=CCC3c3cncc(F)c3)CC2)ncc1F (stereo not drawn) [Compound 229, 5-(5-fluoro-2-(4-(5-(5-fluoropyridin-3-yl)-4,5-dihydro-1H-pyrazole-1-carbonyl)piperazin-1-yl)pyrimidin-4-yl)-1-methyl-1H-1,2,4-triazole-3-carbonitrile] | 0.1 to 100 |  |
| Cn1nc(C(=O)O)nc1-c1nc(N2CCN(C(=O)N3N=CCC3c3cc(F)cc(F)c3)CC2)ncc1F (stereo not drawn) [Compound 230, 5-(2-(4-(5-(3,5-difluorophenyl)-4,5-dihydro-1H-pyrazole-1-carbonyl)piperazin-1-yl)-5-fluoropyrimidin-4-yl)-1-methyl-1H-1,2,4-triazole-3-carboxylic acid] | 100 to 1000 |  |
| Cc1nc(C)n(-c2nc(N3CCN(C(=O)N4N=CCC4c4ncc(C)s4)CC3)ncc2F)n1 (stereo not drawn) [Compound 231, (4-(4-(3,5-dimethyl-1H-1,2,4-triazol-1-yl)-5-fluoropyrimidin-2-yl)piperazin-1-yl)(5-(5-methylthiazol-2-yl)-4,5-dihydro-1H-pyrazol-1-yl)methanone] |  | 0.1 to 100 |
| Cc1nc(C)n(-c2nc(N3CCN(C(=O)N4N=CC[C@H]4c4cc(F)cc(F)c4)CC3)c(F)cc2F)n1 [Compound 232, (S)-(5-(3,5-difluorophenyl)-4,5-dihydro-1H-pyrazol-1-yl)(4-(6-(3,5-dimethyl-1H-1,2,4-triazol-1-yl)-3,5-difluoropyridin-2-yl)piperazin-1-yl)methanone] | 0.1 to 100 |  |
| Cc1nc(C)n(-c2nc(N3CCN(C(=O)N4N=CC[C@H]4c4cc(F)cc(C#N)c4)CC3)c(F)cc2F)n1 [Compound 233, (S)-3-(1-(4-(6-(3,5-dimethyl-1H-1,2,4-triazol-1-yl)-3,5-difluoropyridin-2-yl)piperazine-1-carbonyl)-4,5-dihydro-1H-pyrazol-5-yl)-5-fluorobenzonitrile] | 0.1 to 100 |  |
| Cc1nc(C)n(-c2nc(N3CCN(C(=O)N4N=CC[C@H]4c4cncc(F)c4)CC3)c(F)cc2F)n1 [Compound 234, (S)-(4-(6-(3,5-dimethyl-1H-1,2,4-triazol-1-yl)-3,5-difluoropyridin-2-yl)piperazin-1-yl)(5-(5-fluoropyridin-3-yl)-4,5-dihydro-1H-pyrazol-1-yl)methanone] | 0.1 to 100 |  |
| Cc1ncn(-c2nc(N3CCN(C(=O)N4N=CC[C@H]4c4cc(F)cc(F)c4)CC3)ncc2F)n1 [Compound 235, (S)-(5-(3,5-difluorophenyl)-4,5-dihydro-1H-pyrazol-1-yl)(4-(5-fluoro-4-(3-methyl1H-1,2,4-triazol-1-yl)pyrimidin-2-yl)piperazin-1-yl)methanone] | 0.1 to 100 |  |
| Cc1nc(C)n(-c2nc(N3CCN(C(=O)N4N=CCC4c4cc(Br)cc(F)c4F)CC3)ncc2F)n1 (stereo not drawn) [Compound 237, (5-(5-bromo-2,3-difluorophenyl)-4,5-dihydro-1H-pyrazol-1-yl)(4-(4-(3,5-dimethyl-1H-1,2,4-triazol-1-yl)-5-fluoropyrimidin-2-yl)piperazin-1-yl)methanone] | 0.1 to 100 |  |
| Cc1nc(C)n(-c2nc(N3CCN(C(=O)N4N=CCC4c4cc(C#N)cc(F)c4F)CC3)ncc2F)n1 (stereo not drawn) [Compound 238, 3-(1-(4-(4-(3,5-dimethyl-1H-1,2,4-triazol-1-yl)-5-fluoropyrimidin-2-yl)piperazine-1-carbonyl)-4,5-dihydro-1H-pyrazol-5-yl)-4,5-difluorobenzonitrile] | 0.1 to 100 |  |
| Cc1nc(C)n(-c2nc(N3CCN(C(=O)N4N=CC[C@@H]4c4cnc(C)s4)CC3)ncc2F)n1 [Compound 239, (R)-(4-(4-(3,5-dimethyl-1H-1,2,4-triazol-1-yl)-5-fluoropyrimidinyl)piperazin-1-yl)(5-(2-methylthiazol-5-yl)-4,5-dihydro-1H-pyrazol-1-yl)methanone] | 1000 to 10000 |  |
| Cc1nc(C)n(-c2nc(N3CCN(C(=O)N4N=CC[C@H]4c4cnc(C)s4)CC3)ncc2F)n1 [Compound 240, (S)-(4-(4-(3,5-dimethyl-1H-1,2,4-triazol-1-yl)-5-fluoropyrimidin-2-yl)piperazin-1-yl)(5-(2-methylthiazol-5-yl)-4,5-dihydro-1H-pyrazol-1-yl)methanone] | 0.1 to 100 |  |
| Cc1nc(C)n(-c2nc(N3CCN(C(=O)N4N=CC[C@H]4c4ncc(C)s4)CC3)ncc2F)n1 [Compound 241, (S)-(4-(4-(3,5-dimethyl-1H-1,2,4-triazol-1-yl)-5-fluoropyrimidin-2-yl)piperazin-1-yl)(5-(5-methylthiazol-2-yl)-4,5-dihydro-1H-pyrazol-1-yl)methanone] | 0.1 to 100 |  |
| Cc1nc(C)n(-c2nc(N3CCN(C(=O)N4N=CC[C@@H]4c4ncc(C)s4)CC3)ncc2F)n1 [Compound 242, (R)-(4-(4-(3,5-dimethyl-1H-1,2,4-triazol-1-yl)-5-fluoropyrimidinyl)piperazin-1-yl)(5-(5-methylthiazol-2-yl)-4,5-dihydro-1H-pyrazol-1-yl)methanone] | 0.1 to 100 |  |
| Cc1nc(C)n(-c2ccnc(N3CCN(C(=O)N4N=CC[C@H]4c4cc(F)cc(C#N)c4)CC3)n2)n1 [Compound 243, (S)-3-(1-(4-(4-(3,5-dimethyl-1H-1,2,4-triazol-1-yl)pyrimidin-2-yl)piperazine-1-carbonyl)-4,5-dihydro-1H-pyrazol-5-yl)-5-fluorobenzonitrile] | 0.1 to 100 |  |
| Cc1nc(C)n(-c2nccc(N3CCN(C(=O)N4N=CC[C@H]4c4cc(F)cc(C#N)c4)CC3)n2)n1 [Compound 244, (S)-3-(1-(4-(2-(3,5-dimethyl-1H-1,2,4-triazol-1-yl)pyrimidin-4-yl)piperazine-1-carbonyl)-4,5-dihydro-1H-pyrazol-5-yl)-5-fluorobenzonitrile] | 0.1 to 100 |  |
| Cc1nc(C(F)F)nn1-c1nc(N2CCN(C(=O)N3N=CC[C@H]3c3cc(F)cc(C#N)c3)CC2)ncc1F [Compound 245, (S)-3-(1-(4-(4-(3-(difluoromethyl)-5-methyl-1H-1,2,4-triazol-1-yl)-5-fluoropyrimidinyl)piperazine-1-carbonyl)-4,5-dihydro-1H-pyrazol-5-yl)-5-fluorobenzonitrile] | 0.1 to 100 |  |
